In patent US20080293699A1, “Inhibitors of thapsigargin-induced cell death” (priority 2007, published 2008):
Entries after “also recorded” stand apart in the source; their conditions may differ. Where two headings read alike, the source gives them in different places.

Columns and labels:
CSM14.1 cells = experiment: Primary HTS assay: ATP content (ATPlite) of undifferentiated CSM14.1 cells challenged with thapsigargin; format: cell-based, rat; settings: for Activity against thapsigargin-induced cell death / cell protection: cell death assay used for primary screening; for IC50: thapsigargin-induced death of undifferentiated CSM14.1, ATP content
Text: For convenience, and because transient reductions in temperature that might be associated with large screening experiments could restore Large T activity, we elected to develop our HTS using undifferentiated CSM14.1 cells, with the plan to then confirm hits using differentiated cells. For monitoring cell death, we used a commercially available bioluminescence reagent that determines intracellular ATP content, without requirement for complicated cell processing steps (ATPlite, Perkin Elmer). Thus, ATP was used as a surrogate indicator of cell survival for the primary assay.
Undifferentiated or differentiated CSM14.1 cells were plated at a density of 3,000 cells/well in 40 μL DMEM medium (containing 10% serum, 1 mM L-glutamine, and antibiotics) in 96 well flat-bottom microtiter plates composed of polystrene (Greiner Bio One, polystyrene, white wall, flat bottom, lumitrac, high binding). After overnight incubation at 32° C., DMSO (0.5% v/v) or 100 uM Salubrinal (Sal) in DMSO was delivered. After 2 hrs, 5 uL of a stock solution of 150 uM TG in DMEM medium containing 0.75% (v:v) DMSO to achieve a final concentration of approximately 15 uM. After culturing for 24 hrs, cellular ATP content was measured by addition of 20 uL per well of ATPlite solution (Perkin-Elmer), and then the plates were incubated for three minutes at room temperature, before reading with a Microplate Luminometer (BD Pharmingen Moonlight model 3096).
To determine the reproducibility of the ATP content assay, we prepared a 96-well plate in which half the wells received TG plus DMSO (assay minimum) and half received TG plus Salubrinal (assay maximum), then performed the ATP content studies using undifferentiated CSM14.1 cells (FIG. 6). CSM14.1 cells were cultured overnight at 3,000 cells per well in 96-well flat-bottom plates, then either DMSO (0.5% final concentration) or Salubrinal (100 μM) in DMSO (0.5% final concentration) was added to half the well (48 each). After two hrs, TG was added to all wells (15 μM final). Cells were cultured for 24 hrs, then the ATP content was measured using the ATPlite luminogenic assay. We then adapted this assay to the high-throughput environment, using a Biomex™ FX liquid handler for automated dispensing of assay components into microwells of 96-well plates. First, undifferentiated CSM14.1 cells were grown at 32° C. in DMEM medium supplemented with 10% fetal bovine serum (FBS), 1% penicillin/streptomycin, and 1% L-glutamine in 150 mm×25 mm polystyrene culture dishes to produce approximately 3×10^6 cells. Second, CSM14.1 cells were recovered from cultures by trypsinization when at 80-90% confluence, and suspended at 7.5×10^4 cells/mL in DMEM medium containing 2% FBS, 1 mM L-glutamine, and antibiotics 100 IU penicillin 100 μg/ml streptomycin. Third, the cell suspension was then delivered at 40 μL per well of 96-well plastic microtiter plates (Greiner Bio One, polystyrene, white wall, flat bottom, lumitrac, high binding, cat #655074), and the plates were cultured overnight at 32° C. in a humidified atmosphere in 95% air: 5% CO2. Fourth, using the automated liquid handler, 5 μL of test compounds in 10% DMSO were added to wells in columns 2-11 of the 96-well plates (leaving columns 1 and 12 intact) to achieve an approximate final concentration of 15 μg/mL test compound and a final concentration of 1% DMSO. Fifth, 5 μL of 1 mM Salubrinal in a solution of 10% DMSO:90% DMEM was added to wells of column 1/rows A-D of each plate, while 5 μL of 10% DMSO:90% DMEM solution was added to wells corresponding to column 1/rows E-H and to all wells in column 12. Sixth, the plates were returned to culture.

phospho-c-Jun = experiment: Immunoblotting of thapsigargin-induced c-Jun phosphorylation in CSM14.1 cells; format: cell-based, rat; settings: immunoblotting with phospho-specific antibody, 10 μM, 25 μM hits
Text: After confirming the pathway selectivity of compounds, additional downstream assays can be performed to map the specific signal transduction pathway inhibited by the compounds. In this regard, various antibody reagents are commercially available for assessing the status of the three major pathways known to be activated by ER stress: (1) PERK, (2) Ire1, and (3) ATF6 (Xu et al., J. Clinical Invest., 115:2656-2664, 2005). Immunoblotting experiments can be performed to assess the expression or phosphorylation (using phospho-specific antibodies) of marker proteins in these pathways. […] CSM 14.1 cells were cultured with DMSO or with 25 μM of hit compounds for two hours, followed by treatment of thapsigargin (15 μM). Cell lysates were prepared and analyzed by SDS-PAGE/immunoblotting using antibodies specific for phospho-c-Jun, phospho-eIF2α, phospho-p38 MAPK, and tubulin (a loading control). CSM14.1 cells were cultured with either DMSO or one of the active compounds at 1, 5, and 10 μM, followed two hours later by 15 μM TG. After two hrs, cell lysates were prepared, normalized for protein content, and either analyzed by SDS-PAGE/immunoblotting using anti-p38-MAPK pan-reactive antibody or phospho-specific antibody with ECL-based detection, followed by densitometry analysis of x-ray films, normalizing phosphor-p38 MAPK relative to total p38 MAPK, or analyzed using a meso-scale instrument from MSD and a procedure in which total p38 MAPK is captured on plates, and the relative amounts of phosphorylated protein were determined using phospho-specific antibody (MSD catalog #K15112D1). […] Suppression of p38 MAPK and c-Jun phosphorylation was dose-dependent, and could not be explained by a decline in total levels of these proteins. […] Proteolytic processing of ATF6 was also not inhibited by our hit compounds. […] Screens of other libraries (such as the NIH compound collection) may yield cytoprotective compounds with different mechanisms.
1) CSM14.1 cells were plated at a density of 2×10^5 cells/well at 6 well dish (Greiner Bio one) in DMEM containing 2% FBS and antibiotics.
2) After overnight incubation, cells were treated by DMSO (0.5%) or compounds (25 μM) for two hours, followed by TG (15 uM) treatment.
3) After two hours, cells were lyzed in 250 uL of lysis buffer and subjected to protein concentration decision, and to SDS PAGE/Western blotting using antibodies specific for phospho p38 MAPK (Cell signaling 9211), p38 MAPK (Santa Cruz-C20), phospho c-Jun (Cell signaling 9164), c-Jun (Santa Cruz-SC 1694), phospho eIF2α (Cell signaling 3597) and α-tubulin.
CSM 14.1 cells were cultured with DMSO or with 25 μM of hit compounds for two hours followed by treatment with thapsigargin (15 μM). Cell lysates were prepared and analyzed by SDS-PAGE/immunoblotting using antibodies specific for: c-Jun, phosphor-c-Jun (ser 73), eIF2a, phosphor-eIF2a (ser 51), p38 MAPK, phosphor-p38 MAPK (Thr180/Tyr182), ATF-6, CHOP and tubulin (loading control). ER stress-induced activation of C-Jun and p38 MAPK is suppressed by the 11 hit compounds.
CSM cells were treated with two compounds at increasing doses. Pre-incubation time, thapsigargin treatment, cell extract preparation and immunoblotting protocols were as described previously.

[1] = tested on: ASK1 (ser 967, ser 83, thr 845); experiment: Phosphorylation of ASK1 sites in ASK1-transfected 293T cells (immunoblotting); format: cell-based; settings: ASK1-transfected 293T; for Phosphorylation of ASK1 at ser 967: 100 μM compound, two hours; for Phosphorylation of ASK1 at ser 83 and thr 845: up to 100 μM
Procedure: Phosphorylation of ASK1 at various sites was inspected. 293T cells were transfected with pcDNA-ASK1-HA. One day later, cells were incubated with DMSO (0.4%) or 100 μM compound 6239507 (#1) for two hours. Cell extracts were prepared using lysis buffer and were subjected to immunoblotting using anti-phospho ASK1 antibodies or anti HA antibody as indicated (A). The relative density of each phosphorylated ASK band was calculated by imageJ software (B). In (C), compounds from (A) were compared in activity against thapsigargin-induced cell death. […] (D) 293T cells were transfected with pcDNA-ASK1-HA and pEBG-GST-14-3-3. One day later cells were incubated with DMSO (0.4%) or 100 μM of the indicated compound for two hours. Then cells were treated with thapsigargin (20 μM) for the indicated time. Cell extracts were prepared using lysis buffer, and 14-3-3 proteins were immunoprecipitated with […] sepharose beads. ASK1 protein binding with 14-3-3 was visualized by immunoblotting using anti-HA antibody. Anti-phospho ASK1 (ser967) antibody was used to detect phosphorylation of ASK1 at each time point.
Thus, while not directly inhibiting ASK1 kinase activity, these events are predicted to reduce ASK1 in vivo kinase activity. It is possible that compound 5962123 inhibits a protein phosphatase that regulates phosphorylation of Ser967.
Suppression of thapsigargin-induced phosphorylation of p38MAPK was also measured by a quantitative ELISA-methods, with IC50 for p38MAPK phosphorylation estimated at <5 μM. In contrast, thapsigargin-induced expression of CHOP, expression of ATF4, proteolytic processing of ATF6, phosphorylation of eIF2a (Ser 51), auto-phosphorylation of Ire1a or auto-phosphorylation of ASK1 were not inhibited directly by CID-2878746 at concentrations up to 50 μM tested by in vitro kinase assay using p32-γ-ATP substrate. […] Thapsigargin-induced reductions in phosphorylation of ASK1 at the serine 967 site in ASK1 transfected 293T cells are inhibited by compound 5962123 at concentrations of 50-100 μM, as determined by immunoblotting using anti-phospho-specific (ser 967) antibody, but thapsigargin-induced changes in phosphorylation of ASK1 at ser 83 and thr 845 are not modulated by compound 5962123 at concentrations as high as 100 μM in ASK1-transfected HEK293T cells.
Experiments were also performed to determine whether compound 6239507 enhances phosphorylation of ASK1 at Ser 967 before and after ER stress induction (i.e., thapsigargin treatment). 293T cells were transfected with pcDNA-ASK1-HA. One day later, cells were incubated with DMSO (0.4%) or 100 μM compound 6239507 (#1) for two hours. Then cells were treated with thapsigargin (20 μM) for the indicated times. Cell extracts were prepared by lysis buffer and were subjected to immunoblotting with anti-phospho ASK1 Ser967 antibody or anti HA antibody. The relative density of phosphor ser967 bands were calculated by imageJ software (mean ±SD).
The ser 967 site of ASK1 is known to down-regulate ASK1 activity by phosphorylation (Goldman et al., J. Biol. Chem. 279:10442-10449, 2004) via 14-3-3 binding. […] 293T cells were transfected with pcDNA-ASK1-HA. One day later, cells were incubated with DMSO (0.4%) or 100 μM compound 6239507 (#1) for two hours. Cell extracts were prepared using lysis buffer and were subjected to immunoblotting using anti-phospho ASK1 antibodies or anti HA antibody as indicated. The relative density of each phosphorylated ASK band was calculated by imageJ software. The compounds were compared in activity against thapsigargin-induced cell death. 293T cells were transfected with pcDNA-ASK1-HA and pEBG-GST-14-3-3. One day later cells were incubated with DMSO (0.4%) or 100 μM of the indicated compound for two hours. Then cells were treated with thapsigargin (20 μM) for the indicated time. Cell extracts were prepared using lysis buffer, and 14-3-3 proteins were immunoprecipitated with […] sepharose beads. […]

[2] = one value given, read-out: IC50
[3] = first assay, read-out: IC50 (μM), first value
[4] = second assay (value in bold), read-out: IC50 (μM), value from a second assay

Row | SMILES | Activity against thapsigargin-induced cell death / cell protection (CSM14.1 cells) | IC50 (CSM14.1 cells; [2]) [µM] | Thapsigargin-induced phosphorylation of c-Jun (phospho-c-Jun) | IC50 (CSM14.1 cells; [3]) [µM] | IC50 (CSM14.1 cells; [4]) [µM] | Phosphorylation of ASK1 at ser 967 [1] | Phosphorylation of ASK1 at ser 83 and thr 845 [1] | IC50 (CSM14.1 cells; Rattus norvegicus, one value given, read-out: IC50) [µM]
1 | COc1ccc(C2CC(=O)C3=C(C2)Nc2ccccc2NC3c2cccc(O)c2)cc1 (stereo not drawn) [Compound 6048163] | inactive in cell protection; also recorded: not potent as an inhibitor of cell death | > 200 | fail to suppress | – | – | – | – | –
2 | CCOc1cc(C2Nc3ccccc3NC3=C2C(=O)CC(c2ccc(OC)cc2)C3)cc(Cl)c1O (stereo not drawn) [Compound 6049448] | – | 23.7 ± 0.642 | – | 24.8 ± 2.03 | 23.7 ± 0.642 | enhanced phosphorylation of ser 967 only | not ser 83 or thr 845 | –
3 | COc1ccc(C2CC(=O)C3=C(C2)Nc2ccccc2NC3c2ccncc2)cc1OC (stereo not drawn) [Compound 6075841] | inactive | > 200 | fail to suppress | – | – | – | – | –
4 | CCCOc1ccc(C2Nc3ccccc3NC3=C2C(=O)CC(c2ccc(OC)c(OC)c2)C3)cc1 (stereo not drawn) [Compound 6237877] | – | 12.5 ± 0.17 | dose-dependent decrease | 16.3 ± 0.439 | 12.5 ± 0.17 | – | – | –
5 | COc1ccc(C2CC(=O)C3=C(C2)Nc2ccccc2NC3c2cc(C)ccc2C)cc1 (stereo not drawn) [Compound 6238767] | – | 12.5 ± 0.177 | – | 13.3 ± 1.17 | 12.5 ± 0.177 | enhanced phosphorylation of ser 967 only | not ser 83 or thr 845 | –
6 | COc1ccc(C2CC(=O)C3=C(C2)Nc2ccccc2NC3c2ccccc2C)cc1OC (stereo not drawn) [Compound 6369841, 3-(3,4-dimethoxyphenyl)-11-(2-methylphenyl)-2,3,4,5,10,11-hexahydro-1H-dibenzo[b,e][1,4]diazepin-1-one] | – | – | – | – | – | – | – | 36.5 ± 2.19
